Each structure is given as a SMILES string.

The nature of the data set: Human HepG2 cell viability assay in 384 well format. The format is toxicity, cell-based. Set-up: dose 125 nL, time 70.5 hour; concentration not given beside the values. The note with it: HepG2 cells, read-out: Inhibition.
Take `Cc1nccn1-c1ccc(=O)n(CCNC(=O)c2ccncc2)n1`: the cytotoxicity at 70.5 h was -7.2%.
On to `O=c1ccc(-n2ccnc2)nn1CCNS(=O)(=O)c1ccc(Br)cc1`, for which the cytotoxicity at 70.5 h is 15.1%.
As to `O=c1ccc(-n2ccnc2)nn1CCNS(=O)(=O)c1ccc(F)c(Cl)c1`, the cytotoxicity at 70.5 h is -1.07%.
As for `Cn1nnn(-c2ccc(NS(=O)(=O)c3ccc(Br)cc3)cc2)c1=O`, the cytotoxicity at 70.5 h is -2.26%.
Next, `O=C(c1nnn(-c2ccc(F)cc2)n1)N(CCO)Cc1ccccc1`: -1.48%; `CC1CCCN(C(=O)c2nnn(-c3ccc(C(F)(F)F)cc3)n2)C1` (stereo unspecified): 1.4%; `O=C(c1nnn(-c2ccc(C(F)(F)F)cc2)n1)N1CCC(O)CC1`: -2.52%.
As to `O=C1CN(C(=O)c2nnn(-c3ccc(C(F)(F)F)cc3)n2)CCN1`, the cytotoxicity at 70.5 h is -14.4%.
Next, `COCCNC(=O)NC1(c2nc(C)no2)CCCCC1`: -0.559%.
With `COc1cccc(CNC(=O)NC2(c3nc(C)no3)CCCCC2)c1` the figure was 13.3%; with `O=C(NC1(c2nc(C3CC3)no2)CCCCC1)c1cccnc1O`, 3.05%; with `COc1nn(C)cc1C(=O)N1CCC(c2nnc(-c3ccsc3)o2)CC1`, -6.31%.
Regarding `Cc1nnc(C2CCN(C(=O)c3ccc4[nH]ccc4c3)CC2)s1`, the cytotoxicity at 70.5 h was -5.35%.
With `CCCC(=O)N1CCC(c2nn(C)c(=O)n2-c2ccccc2)CC1` the figure was -10.4%; with `CCSc1ccccc1C(=O)NCCn1nc(C(F)(F)F)n(C)c1=O`, -4.82%.
Next, `Cn1c(C(F)(F)F)nn(CCNC(=O)c2ccccn2)c1=O`: -7.74%.
With `COCCNC(=O)NCCn1nc(C(F)(F)F)n(C)c1=O` the figure was -4.7%; with `O=C(CN1CCC(c2nnc(C(F)(F)F)o2)CC1)Nc1cccc(Cl)c1`, 19.3%; with `CNC(=O)c1nnn(-c2ccccc2F)c1-c1ccccn1`, 0.41%.
Regarding `CN1CCN(c2cc(NC(=O)c3cnccn3)ncn2)CC1`, the cytotoxicity at 70.5 h was 0.507%.
Consider `O=C(Cc1ccccc1Cl)Nc1cc(N2CCCC2)ncn1`, for which the cytotoxicity at 70.5 h is -0.171%.
Next, `Cc1ccccc1NC(=O)Nc1cc(N2CCCC2)ncn1`: 10.8%.
Next, `CC1CCN(c2cc(NC(=O)C3CC3)ncn2)CC1`: 0.806%; `Cc1cc(=O)n(CCNS(=O)(=O)c2ccccc2)cn1`: -1.2%; `O=C(NCCn1cnc(C2CCCC2)cc1=O)NCc1cccs1`: -7.11%.
With `Cc1ncn(CCNC(=O)Nc2ccccc2)c(=O)c1C` the figure was 21.4%; with `Cn1nc(N2CCCC(C(=O)Nc3nc4ccccc4s3)C2)ccc1=O` (stereo unspecified), 1.88%.
`CCOc1cc(NC(=O)C2CC(=O)N(c3cccc(OC)c3)C2)ncn1` (stereo unspecified): the cytotoxicity at 70.5 h was -2.94%.
With `O=C(c1ccc(F)cc1F)N(CC(F)(F)F)C1CCOCC1` the figure was -4.08%.
For `Cn1nc(C(=O)N2CC(Oc3nc4c(Cl)cccc4s3)C2)ccc1=O`, the cytotoxicity at 70.5 h was -8.11%.
Next, `COc1cccc2sc(OC3CN(C(=O)C4=COCCO4)C3)nc12`: -8.14%; `COCC(C)(O)CNC(=O)c1cc(-c2cc(OC)ccc2OC)nn1C` (stereo unspecified): 6.52%.
Next, `O=C(NCCOc1ccccc1)NCC(O)c1cccs1` (stereo unspecified): -11.8%; `CCOCC(=O)NCCc1nc(C2CC2)cc(C(F)(F)F)n1`: -4.83%.
Next, `CC(=O)NCc1cc(-c2cccs2)n(C2CCCC2)n1`: -2.19%.
Turning to `COCCNC(=O)NCc1cc(-c2cccs2)n(C2CCCC2)n1`, the cytotoxicity at 70.5 h was -8.68%.
Turning to `COCCNC(=O)NCc1cc(-c2ccncc2)n(C2CCCC2)n1`, the cytotoxicity at 70.5 h is -13.6%.
For the compound `O=C1CCSCC(C(=O)NCc2nc(-c3ccccc3)no2)N1` (stereo unspecified), the cytotoxicity at 70.5 h is -11.9%.
With `Cc1noc(CNC(=O)C2CSCCC(=O)N2)n1` (stereo unspecified) the figure was -12.9%; with `Cn1nnc2c(N3CC(C(=O)NCCC4=CCCCC4)C3)ncnc21`, -18.5%.
With `Cn1nnc2c(N3CC(C(=O)NCc4cccs4)C3)ncnc21` the figure was -1.73%; with `O=C(O)CC(CC(=O)NCc1ccsc1)c1cccs1` (stereo unspecified), -5.7%.
With `Cn1cccc1CN(C(=O)CC(CC(=O)O)c1cccs1)C1CC1` (stereo unspecified), the cytotoxicity at 70.5 h is -9.4%.
With `Cc1ccc(S(=O)(=O)NCC(O)c2ccoc2)s1` (stereo unspecified) the figure was -12.5%; with `O=S(=O)(NCC(O)c1ccoc1)c1ccc(Cl)s1` (stereo unspecified), 23%.
On to `O=S(=O)(NCC(O)c1ccoc1)c1ccc(Br)s1` (stereo unspecified), for which the cytotoxicity at 70.5 h is -1.32%.
Next, `O=C(NCc1cccs1)NCC(O)c1ccoc1` (stereo unspecified): -3.33%.
Next, `O=C(Cc1ccc(F)cc1)NCCc1ccoc1`: -5.69%.
Next, `CCOc1ccccc1NC(=O)NCCc1ccoc1`: 12.2%.
Turning to `CC(C)(C)NC(=O)N1CCC(Oc2ccc(C(F)(F)F)cn2)CC1`, the cytotoxicity at 70.5 h is -6.24%.
Next, `O=C(c1cnccn1)N1CCC(Oc2ncccc2Cl)CC1`: 4.06%; `O=C(c1cc(C2CC2)on1)N1CCC(Oc2ncccc2Cl)CC1`: -6.96%.
With `N#Cc1cccnc1OC1CCN(C(=O)c2cc(C3CC3)on2)CC1` the figure was -6.54%; with `N#Cc1cccnc1OC1CCN(S(=O)(=O)c2ccc(Br)cc2)CC1`, -12.9%; with `Cn1nc(C(=O)N2CCC(Oc3ccc(C#N)cn3)CC2)ccc1=O`, -11%.
With `CN1CCCC(C(=O)N2CCC(Oc3ccc(C#N)cn3)CC2)C1` (stereo unspecified) the figure was -5.58%; with `N#Cc1ccc(C(=O)N2CCC(Oc3ccc(C#N)cn3)CC2)cc1`, -3.02%.
As to `O=C(Cn1ccc2ccccc21)N1CCC(Oc2cnccn2)CC1`, the cytotoxicity at 70.5 h is -7%.
With `O=C(Cn1cccn1)N1CCC(Oc2cnccn2)CC1` the figure was -6.46%; with `CN(C)S(=O)(=O)N1CCC(Oc2cccnn2)CC1`, 0.601%.
With `Cc1ccc(S(=O)(=O)N2CCC(Oc3cccnn3)CC2)c(C)c1` the figure was -8.17%; with `COC(=O)c1ccc(S(=O)(=O)N2CCC(Oc3cccnn3)CC2)cc1`, -8.01%; with `O=C(Cn1ccc2ccccc21)N1CCC(Oc2ncccc2Br)CC1`, -3.13%.
For the compound `Cc1cccc(OC2CCN(C(=O)c3ccc4c(c3)OCO4)CC2)n1`, the cytotoxicity at 70.5 h was -7.71%.
With `Cc1cccc(OC2CCN(S(=O)(=O)Cc3cccc(F)c3)CC2)n1` the figure was -1.18%; with `COC(=O)c1sccc1S(=O)(=O)N1CCC(Oc2cccc(C)n2)CC1`, -9.62%; with `O=C(COc1ccc(-n2cccn2)nn1)NC1CCCCC1`, 0.192%.
Next, `CNc1cc(N2CCCC2CNCc2csc(C(C)C)n2)ncn1` (stereo unspecified): 28.6%; `CCn1ccnc1CN1CCCN(C(=O)c2cnn(C)c2)CC1`: -7.1%.
Turning to `CC(C(=O)N1CCCN(Cc2cscn2)CC1)N1CCOCC1` (stereo unspecified), the cytotoxicity at 70.5 h is -8.05%.
With `CN1CCN(c2cc(CNC(=O)c3cnccn3)ccn2)CC1` the figure was -3.35%.
With `Cc1cc(C(=O)NCc2ccnc(N3CCOCC3)c2)c(C)s1` the figure was -13.9%.
Next, `CN1CCN(c2cc(CNC(=O)c3ccsc3)ccn2)CC1`: 1%.
On to `CC(Cc1ccco1)NC(=O)Nc1ccc(N2CCCC2)nc1` (stereo unspecified), for which the cytotoxicity at 70.5 h is -7.87%.
With `NC(=O)Cn1cc(NC(=O)N2CCC(c3ccccc3)CC2)cn1` the figure was -5.24%.
Next, `CC(CO)NC(=O)Nc1ccc(S(C)(=O)=O)nc1` (stereo unspecified): -2.27%; `Cc1noc(C2CCCN(C(=O)c3ccc(N(C)C)nc3)C2)n1` (stereo unspecified): -8.13%; `Cc1nc(CN2CCN(C(C)c3nc(C4CC4)no3)CC2)oc1C` (stereo unspecified): -3.6%.
With `Cc1noc(C2CCN(C(=O)Nc3ccc(N(C)C)nc3)CC2)n1` the figure was 1.32%; with `CCn1ccnc1CN1CCCN(C(=O)c2csc(C)n2)CC1`, -5.02%; with `Cc1ncc(Cl)c(C(=O)N2CCCC(n3nc(C)nc3C)C2)n1` (stereo unspecified), -6.14%.
With `CC(C)(C)c1n[nH]c(C2CN(C(=O)CCc3ccco3)CCO2)n1` (stereo unspecified), the cytotoxicity at 70.5 h is 1.28%.
Next, `CCn1ccnc1CN1CCCN(C(=O)c2ccsc2)CC1`: -2.37%.
With `O=C(c1ccc(N2CCOCC2)cc1)N1CCCC(n2ccnc2)C1` (stereo unspecified) the figure was 20.8%.
With `Cc1nc(C)n(CC2CCCN(CC(=O)Nc3ccncc3)C2)n1` (stereo unspecified) the figure was -5.01%.
Consider `Cc1nc(C)n(CC2CN(Cc3cscn3)CCO2)n1` (stereo unspecified), for which the cytotoxicity at 70.5 h was -6.91%.
Consider `O=C(c1cccc2ncccc12)N1CCCC(n2ccnc2)C1` (stereo unspecified), for which the cytotoxicity at 70.5 h is -2.04%.
With `CC(C)Cc1noc(CN2CCN(S(C)(=O)=O)CC2)n1`, the cytotoxicity at 70.5 h was -7.6%.
Next, `O=C(NCc1ccoc1)Nc1cc(C(F)(F)F)c[nH]c1=O`: 1.11%.
With `COCc1cccc(CNCc2c(C(C)C)nn(C)c2N(C)C)c1` the figure was -7.7%; with `Cc1cc(C)c(CNC(=O)CCC2CCCO2)c(=O)[nH]1` (stereo unspecified), -6.31%; with `Cc1cc(C)n(CC2CN(Cc3cc(C)on3)CCO2)n1` (stereo unspecified), -3.83%.
In the case of `Cn1cc(CCNCc2cc(Br)c3c(c2)OCO3)cn1`, the cytotoxicity at 70.5 h is 23.7%.
Next, `Cc1nnc2n1CCN(C(=O)c1cc(Br)c(Cl)[nH]1)C2`: -1.01%; `CC(C)c1nnc2n1CCN(C(=O)c1cc(Cl)c[nH]1)C2`: 0.408%; `CNc1snc(C)c1C(=O)N1CCC(Nc2ccc(C)nn2)CC1`: -3.58%.
Next, `Cn1nccc1C(=O)Nc1cc(C(F)(F)F)c[nH]c1=O`: -6.13%.
With `O=C(COc1ccc2c(c1)CCC2)NS(=O)(=O)c1cccnc1` the figure was -10.3%.
For the compound `COc1cccc(OCC(=O)NS(=O)(=O)c2cccnc2)c1`, the cytotoxicity at 70.5 h was -3.41%.
With `Cc1nc(C)n(CC2CCCCN2CC(=O)Nc2c(C)n[nH]c2C)n1` (stereo unspecified) the figure was -1.79%; with `CCCc1noc(CN2CCN(CCO)CC2)n1`, -1.1%.

These data come from ChEMBL document CHEMBL3507680, “University of Dundee, Gates Library screen for HepG2 cell viability”.
